Test results taken from patent US20090275608A1, “Methods of diagnosing and treating parp-mediated diseases” (BiPar Sciences, Inc., priority 2008, published 2009).
“Also recorded” adds a separate entry of the source.

Assays:
HCC827 cells [1] = test: FACS cell cycle analysis (PI DNA content), Compound III with EGFR inhibitor; format: cell-based, human
Description: (§1) The effects of Compound III and its nitroso metabolite on the cell cycle in cancer cell lines in combination with second agents were determined.
(§2) Compound III and Compound III-1 compounds were tested in the presence of the second agent according the schedule indicated in the Table below.
(§3) Cell Culture: Triple negative MDA-MB-468 human breast carcinoma, U251 human glioblastoma and lung adenocarcinoma HCC827 cells were cultured in Dulbecco Modified Eagle Medium with 10% fetal bovine serum. Cells were plated at a seeding density 10^5 per P100 or at 10^4 per P60 in growth media and incubated 12-18 h at 37° C., 5% CO2. Compounds with and without secondary agent (see Table 1) were added as a single dose for 72 hours. DMSO was used as a control. Following treatment, cells were analyzed with BrdU ELISA Assay (Roche Applied Science), FACS based cell cycle assay or TUNEL.
(§4) Compounds: Compound III was dissolved directly from dry powder in DMSO (cat #472301, Sigma-Aldrich) for each separate experiment, then the entire volume of the stock solution was used to prepare 111 nM, 313 nM and 1 μM working concentrations in cell culture medium to avoid any possibility of precipitation and the corresponding loss of compound.
(§5) PI Exclusion, Cell Cycle and TUNEL Assays (FACS): After the addition of drugs and incubation, cells were taken for counting and PI (Propidium Iodide) exclusion assay. One part of the cells was centrifuged and resuspended in 0.5 ml ice-cold PBS containing 5 μg/ml of PI. The other part of the cells was fixed in ice-cold 70% ethanol and stored in a freezer overnight. For cell cycle analysis, cells were stained with propidium iodide (PI) using standard procedures. Cellular DNA content was determined by flow cytometry using BD LSRII FACS, and the percentages of cells in G1, S or G2/M were determined using ModFit software.

HCC827 cells [2] = test: TUNEL apoptosis assay (FACS), Compound III with EGFR inhibitor; format: cell-based, human; details: GFT 2 nM + 201 0 μM
Description: as §3, §4
(§6) To detect apoptosis, the cells were labeled with the “In Situ Cell Death Detection Kit, Fluorescein” (Roche Diagnostics Corporation, Roche Applied Science, Indianapolis, Ind.). […] All cell samples were analyzed with a BD LSR II (BD Biosciences, San Jose, Calif.). […]

NFκB = details: multiple myeloma cells, Hideshima et al., 2002; cited from earlier work
NF-κB = details: HeLa cells; cited from earlier work
OVCAR-3 xenograft [3] = test: human ovarian adenocarcinoma OVCAR-3 xenograft model of cancer; format: in vivo, mice
From the text: Xenograft cancer models can be employed to measure the effects of treatment of PARP and co-regulated gene modulators on cancer growth and progression.
Moreover, ovarian adenocarcinoma OVCAR-3 cells produce IGF-I and IGF-II, and express IGF1R, supporting the existence of an autocrine loop.

MDA-MB-468 cells [4] = test: FACS cell cycle analysis (PI DNA content), Compound III with IGF1R inhibitor; format: cell-based, human; details: for G1 / G2/M / S / Sub-G1: MDA-MB-468
Description: as §1, §2, §3, §4, §5

MDA-MB-468 cells [5] = test: BrdU labeling assay (FACS / ELISA), Compound III with IGF1R inhibitor; format: cell-based, human
Description: as §3, §4
Bromodeoxyuridine (BrdU) labeling assay and FACS-based cell cycle analysis: 50 μl of BrdU (Sigma Chemical Co., St. Louis, Mo.) stock solution (1 mM) was added to achieve final concentration of 10 μM BrdU. Then cells were incubated for 30 min at 37° C. and fixed in ice-cold 70% ethanol and stored at 4° C. overnight. […] All cell samples were analyzed with a BD LSR II (BD Biosciences, San Jose, Calif.). […]

MDA-MB-468 cells [6] = test: TUNEL apoptosis assay (FACS), Compound III with IGF1R inhibitor; format: cell-based, human
Description: as §3, §4, §6

MDA-MB-468 cells [7] = test: cell counting and PI exclusion assay (cell survival), Compound III with IGF1R inhibitor; format: cell-based, human
Description: as §3, §4
as §5, with “The other part of the cells was fixed in ice-cold 70% ethanol and stored in a freezer overnight. For cell cycle analysis, cells were stained with propidium iodide (PI) using standard procedures.” left out

OVCAR-3 cells = details: OVCAR-3 cell line, Gotlieb et al., 2006; cited from earlier work
OVCAR-3 xenograft [8] = details: previous studies, Gotlieb et al., 2006; cited from earlier work
OVCAR-4 cells = details: OVCAR-4 cell line, Gotlieb et al., 2006; cited from earlier work

Compound `COc1cc2ncnc(Nc3ccc(F)c(Cl)c3)c2cc1OCCCN1CCOCC1` [GFT] has a G1 (HCC827 cells [1]; HCC827, GFT 2 nM + 201 0 μM) of 51.0, a G2/M (HCC827 cells [1]; HCC827, GFT 2 nM + 201 0 μM) of 9.2 and an S (HCC827 cells [1]; HCC827, GFT 2 nM + 201 0 μM) of 34.4. The Sub-G1 (HCC827 cells [1]; HCC827, GFT 2 nM + 201 0 μM) was 3.4 and the “TUNEL(+)” value (HCC827 cells [2]) was 6.2.
For `CC(C)C[C@H](NC(=O)[C@H](Cc1ccccc1)NC(=O)c1cnccn1)B(O)O` [bortezomib], the NFκB activation (NFκB) is listed as “blocked NFκB activation”.
For `CCc1c2c(nc3ccc(O)cc13)-c1cc3c(c(=O)n1C2)COC(=O)[C@]3(O)CC` [SN38, 7-ethyl-10-hydroxycamptothecin], the “NF-κB nuclear translocation and activation of NF-κB target genes” value (NF-κB) is listed as “induce NF-κB nuclear translocation and activation of NF-κB target genes”.
In the case of `COc1cccc2c1C(=O)c1c(O)c3c(c(O)c1C2=O)C[C@@](O)(C(=O)CO)C[C@@H]3O[C@H]1C[C@H](N)[C@H](O)[C@H](C)O1` [doxorubicin], the “NF-κB nuclear translocation and activation of NF-κB target genes” value (NF-κB) is listed as “induce NF-κB nuclear translocation and activation of NF-κB target genes”.
For `NC(=O)c1ccc(I)c([N+](=O)[O-])c1` [Compound III], the “potentiation of the activity of the EGF-R inhibitor IRESSA” value (HCC827 cells [1]; HCC827 cell line) was “potentiate the activity of the EGF-R inhibitor IRESSA®”, the “tumor growth, combination of PARP inhibitor and IGF1R inhibitor” value (OVCAR-3 xenograft [3]; Compound III combined with NVP-AEW541, expected from the single-agent data) was “inhibit tumor growth in mice even further” and the survival of mice (OVCAR-3 xenograft [3]; OVCAR-3 xenograft, FIG. 18) was “improve survival of mice; also recorded: improval of survival of mice”. For the same compound, the tumor growth (OVCAR-3 xenograft [3]; PARP1 inhibition by Compound III, OVCAR-3 xenograft in mice, FIG. 18) was “inhibit tumor growth” and the “potentiation of the activity of IGF-1R inhibitor Picropodophyllin (PPP)” value (MDA-MB-468 cells [4]; triple negative breast cancer cells MDA-MB-468, FIG. 19) was “potentiates the activity of IGF-1R inhibitor Picropodophyllin (PPP)”.
In the case of `COc1cc([C@@H]2c3cc4c(cc3[C@H](O)[C@H]3COC(=O)[C@@H]23)OCO4)cc(OC)c1OC` [Picropodophyllin], the “BrdU(−) S” value (MDA-MB-468 cells [5]; PPP 200 nM + 201 0 uM) is reported as 2.13, the “BrdU(−) S” value (MDA-MB-468 cells [5]; PPP 400 nM + 201 0 uM) is reported as 9.45 and the “TUNEL(+)” value (MDA-MB-468 cells [6]; PPP 200 nM + 201 0 uM) is reported as 0.9. For the same compound, the “TUNEL(+)” value (MDA-MB-468 cells [6]; PPP 400 nM + 201 0 uM) was 4.1, the G1 (MDA-MB-468 cells [4]; PPP 200 nM + 201 0 uM) was 51.42 and the G2/M (MDA-MB-468 cells [4]; PPP 200 nM + 201 0 uM) was 15.01. For the same compound, the S (MDA-MB-468 cells [4]; PPP 200 nM + 201 0 uM) was 30.22, the Sub-G1 (MDA-MB-468 cells [4]; PPP 200 nM + 201 0 uM) was 1.22 and the G1 (MDA-MB-468 cells [4]; PPP 400 nM + 201 0 uM) was 37.29. The G2/M (MDA-MB-468 cells [4]; PPP 400 nM + 201 0 uM) was 20.17, the S (MDA-MB-468 cells [4]; PPP 400 nM + 201 0 uM) was 25.32 and the Sub-G1 (MDA-MB-468 cells [4]; PPP 400 nM + 201 0 uM) was 7.77. The “Vital Cell” value (MDA-MB-468 cells [7]; PPP 200 nM + 201 0 uM) was 89 and the “Vital Cell” value (MDA-MB-468 cells [7]; PPP 400 nM + 201 0 uM) was 60.
For `Nc1ncnc2c1c(-c1cccc(OCc3ccccc3)c1)cn2C1CC(CN2CCC2)C1` (stereo not shown) [NVP-AEW541], the “growth of the cells” value (OVCAR-3 cells) is given as “inhibited growth of the cells”, the “growth of OVCAR-3 tumor” value (OVCAR-3 xenograft [8]) is given as “can inhibit growth of OVCAR-3 tumor” and the “growth of the cells” value (OVCAR-4 cells) is given as “inhibited growth of the cells”.
For `O=C(Nc1cc(Cl)cc2c1[nH]c1cnccc12)c1cccnc1` [PS-1145], the NFκB activation (NFκB) is listed as “blocked NFκB activation”.
